{"source": "patent US7649013B2", "about": "“Methods of protecting against radiation injury” (priority 2003, dated 2010)", "key": {"[1]": {"test_system": "E2F1 in normal colon cells (NCM460)", "assay": "E2F1 level in whole cell extracts, SDS/PAGE and enhanced chemiluminescence, normal colon cells", "format": "cell-based, human", "conditions": "NCM460, 2 μM, 20 minute to 4 hour exposures", "procedure": "(§1) Human colon cancer cells (SW480) and normal colon cells (NCM460) are treated with β-lapachone at a concentration of 2 μM and are harvested after 20 minute, 1 hour, 2 hour, or 4 hour exposures. Whole cell extracts are prepared and resolved by SDS/PAGE. An enhanced chemiluminescence assay system (Amersham Pharmacia) is used to determine the E2F1 level. Monoclonal antibody against […] is obtained from Santa Cruz Biotechnology (Santa Cruz, Calif.). […] Elevation of E2F1 following exposure to β-lapachone persists through cell death in cancer cells."}, "[2]": {"test_system": "C57BL/6J inbred strain female mice", "assay": "Survival after 8 Gy whole body γ-irradiation, intraperitoneal dosing 4 hours before or after (Example 4)", "format": "in vivo", "conditions": "for No. of animals surviving at 20 days post-irradiation: 4 animals; for Death rate (%): 20 days", "procedure": "(§2) β-lapachone is prepared at 10 mg/ml in 40% hydroxypropyl-beta-cyclodextrin (HPBCD).\n(§3) C57BL/6J inbred strain female mice (4-5 weeks old) are used. Animals are maintained in a climate-controlled animal facility.\nAnimals are injected with different concentrations of β-lapachone (20 and 40 mg/kg body weight) intraperitoneally 4 hours before or after irradiation.\nWhole body irradiation of animals with 8 Gy of γ-rays is carried out in air at room temperature in a gamma chamber (Gammacell 40 Exactor), at a dose-rate of 1.05 Gy/min. This radiation dose is within the range of equivalent human exposures predicted in many scenarios of radiologic or nuclear terrorist attack.\nMice are divided into the following groups (each Group comprises four mice receiving identical treatment):\nGroup II: Mice are injected with β-lapachone 20 mg/kg body weight 4 hours before radiation.\n(§4) Group III: Mice are injected with β-lapachone 40 mg/kg body weight 4 hours before radiation.\nGroup IV: Mice are injected with β-lapachone 20 mg/kg body weight 4 hours after radiation.\nGroup V: Mice are injected with β-lapachone 40 mg/kg body weight 4 hours after radiation.\nGroup VI: Mice are injected with amifostine 10 mg/kg body weight 4 hours before radiation.\nAnimals are irradiated with 8 Gy at 1.05 Gy/min dose-rate. After irradiation mice are returned to their cage and observed on a regular basis. Exposure to γ-rays causes lethality in animals. Importantly, treatment with β-lapachone, especially at a level of 40 mg/kg prior to irradiation, diminishes the death rate."}, "[3]": {"test_system": "C57BL/6J inbred strain female mice", "assay": "Survival after 8 Gy whole body γ-irradiation, intraperitoneal 40 mg/kg at varying time points (Example 5)", "format": "in vivo", "conditions": "for No. of animals surviving at 68 days post-irradiation: 8 animals; for Death rate (%): 68 days", "procedure": "as §2, §3\nThe animals are injected intraperitoneally with β-lapachone (40 mg/kg body weight) either 0.5 hour, 1 hour, or 4 hours before irradiation, or 10 minutes or 1 hour after irradiation.\nWhole body irradiation of animals with 8 Gy of γ-rays is carried out in air at room temperature in a gamma chamber (Gammacell 40 Exactor) with a dose-rate of 1.05 Gy/min. This radiation dose is within the range of equivalent human exposures predicted in many scenarios of radiologic or nuclear terrorist attack.\nMice are divided in following groups (each Group comprises eight mice receiving identical treatment):\nas §4\nGroup IV: Mice are injected with β-lapachone 40 mg/kg body weight 1 hour before radiation.\nGroup V: Mice are injected with β-lapachone 40 mg/kg body weight 0.5 hours before radiation.\nGroup VI: Mice are injected with β-lapachone 40 mg/kg body weight 10 minutes after radiation.\nGroup VII: Mice are injected with β-lapachone 40 mg/kg body weight 1 hour after radiation.\nAnimals are irradiated with 8 Gy at 1.05 Gy/min dose-rate. After irradiation mice are returned to their cage and observed on a regular basis. Exposure to γ-rays causes lethality in animals. Importantly, treatment with β-lapachone, especially at a level of 40 mg/kg either 4, 1, or 0.5 hours prior to irradiation, diminishes the death rate."}, "dogs": {"test_system": "dogs", "conditions": "p.o. daily for one month; cited from earlier work"}, "[4]": {"test_system": "E2F1 in human colon cancer cells (SW480)", "assay": "E2F1 level in whole cell extracts, SDS/PAGE and enhanced chemiluminescence, colon cancer cells", "format": "cell-based", "conditions": "SW480, 2 μM, 20 minute to 4 hour exposures", "procedure": "as §1"}, "[5]": {"test_system": "C57BL/6J inbred strain female mice", "assay": "Quantitative spleen cellularity after whole body irradiation, trypan blue exclusion count (Example 7b)", "format": "in vivo", "conditions": "40 mg/kg i.p. 0.5 hour before 8 Gy; day five and eight; P=0.00035", "procedure": "Spleen cellularity is quantitatively assessed following whole body gamma irradiation in mice, with and without pretreatment with β-lapachone, as follows. β-lapachone is prepared at 10 mg/ml in 40% hydroxypropyl-beta-cyclodextrin (HPBCD). C57BL/6J inbred strain female mice (4-5 weeks old) are organized into three groups of six mice each: Group I mice receive no radiation, no β-lapachone, and no carrier; Group II mice receive radiation and are injected with carrier (40% HPBCD 4 ml/kg body weight); and Group III mice are injected intraperitoneally at 0.5 hour before irradiation with β-lapachone (40 mg/kg body weight). […] Three mice in each of Groups I, II, and III are sacrificed on day five following irradiation, and a quantitative analysis of splenic cellularity is performed for each. The remaining mice are sacrificed on day eight following irradiation, and a quantitative analysis of splenic cellularity is performed for each.\nFor quantitative analysis for splenic cellularity, spleens are processed into single cell suspensions and erythrocytes are lysed in 2 ml lysis buffer (0.01 M KHCO3, 0.154 M NH4Cl, 0.01 mM EDTA). The remaining leukocytes are washed, suspended and counted in a hemacytometer using the trypan blue exclusion method."}, "[6]": {"conditions": "20 mg/kg i.p. 4 hr after Radiation 8 Gy"}, "[7]": {"conditions": "20 mg/kg i.p. 4 hr before Radiation 8 Gy"}, "[8]": {"conditions": "40 mg/kg i.p. 4 hr before Radiation 8 Gy"}, "[9]": {"conditions": "Radiation 8 Gy 4 hr → 20 mg/kg as printed (second such line of Table 1)"}, "[10]": {"conditions": "40 mg/kg i.p. 10 min after Radiation 8 Gy"}, "[11]": {"conditions": "40 mg/kg i.p. 0.5 hr before Radiation 8 Gy"}, "[12]": {"conditions": "40 mg/kg i.p. 1 hr after Radiation 8 Gy"}, "[13]": {"conditions": "40 mg/kg i.p. 1 hr before Radiation 8 Gy"}}, "note": "Entries after “also recorded” stand apart in the source; their conditions may differ.", "data": [{"smiles": "CC1(C)CCC2=C(O1)c1ccccc1C(=O)C2=O", "note": "[β-lapachone, 3,4-dihydro-2,2-dimethyl-2H-naphtho[1,2-b]pyran-5,6-dione]", "values": [{"measurement": "E2F1 level", "setting": "[1]", "result": "not in similarly treated normal human colon cells"}, {"measurement": "Median survival time", "setting": "[2]; [6]", "result": 14, "unit": "days"}, {"measurement": "No. of animals surviving at 20 days post-irradiation", "setting": "[2]; [6]", "result": 1}, {"measurement": "Death rate (%)", "setting": "[2]; [6]", "result": 75, "unit": "%"}, {"measurement": "Median survival time", "setting": "[2]; [7]", "result": 13.5, "unit": "days"}, {"measurement": "No. of animals surviving at 20 days post-irradiation", "setting": "[2]; [7]", "result": 0}, {"measurement": "Death rate (%)", "setting": "[2]; [7]", "result": 100, "unit": "%"}, {"measurement": "Median survival time", "setting": "[2]; 40 mg/kg i.p. 4 hr after Radiation 8 Gy", "result": 16.4, "unit": "days"}, {"measurement": "Median survival time", "setting": "[2]; [8]", "result": 25, "unit": "days"}, {"measurement": "No. of animals surviving at 20 days post-irradiation", "setting": "[2]; [8]", "result": 3}, {"measurement": "Death rate (%)", "setting": "[2]; [8]", "result": 25, "unit": "%"}, {"measurement": "Temporal survival pattern (FIG. 5)", "setting": "[2]; 20, 40 mg/kg i.p., 4 hours before or after 8 Gy, vs control decline at 10-14 days", "result": "delayed this early decline in survival"}, {"measurement": "No. of animals surviving at 20 days post-irradiation", "setting": "[2]; [9]", "result": 0}, {"measurement": "Death rate (%)", "setting": "[2]; [9]", "result": 100, "unit": "%"}, {"measurement": "Median survival time", "setting": "[3]; [10]", "result": 14, "unit": "days"}, {"measurement": "No. of animals surviving at 68 days post-irradiation", "setting": "[3]; [10]", "result": 0}, {"measurement": "Death rate (%)", "setting": "[3]; [10]", "result": 100, "unit": "%"}, {"measurement": "Median survival time", "setting": "[3]; 40 mg/kg i.p. 0.5 hr before Radiation 8 Gy (no death)", "result": ">68", "unit": "days"}, {"measurement": "No. of animals surviving at 68 days post-irradiation", "setting": "[3]; [11]", "result": 8}, {"measurement": "Death rate (%)", "setting": "[3]; [11]", "result": 0, "unit": "%"}, {"measurement": "Median survival time", "setting": "[3]; [12]", "result": 16, "unit": "days"}, {"measurement": "No. of animals surviving at 68 days post-irradiation", "setting": "[3]; [12]", "result": 0}, {"measurement": "Death rate (%)", "setting": "[3]; [12]", "result": 100, "unit": "%"}, {"measurement": "Median survival time", "setting": "[3]; [13]", "result": 68, "unit": "days"}, {"measurement": "No. of animals surviving at 68 days post-irradiation", "setting": "[3]; [13]", "result": 4}, {"measurement": "Death rate (%)", "setting": "[3]; [13]", "result": 50, "unit": "%"}, {"measurement": "Median survival time", "setting": "[3]; [8]", "result": 21, "unit": "days"}, {"measurement": "No. of animals surviving at 68 days post-irradiation", "setting": "[3]; [8]", "result": 2}, {"measurement": "Death rate (%)", "setting": "[3]; [8]", "result": 75, "unit": "%"}, {"measurement": "Temporal survival pattern (FIG. 6)", "setting": "[3]; 40 mg/kg i.p. at 0.5, 1.0 or four hours prior to 8 Gy, vs control decline at 16-20 days", "result": "delayed this early decline in survival"}, {"measurement": "Maximum tolerated dose", "setting": "dogs", "result": 100, "unit": "mg/kg"}, {"measurement": "E2F1 level", "setting": "[4]", "result": "Elevation of E2F1 is seen in tumor cells; also recorded: induces increased expression of E2F1"}, {"measurement": "Splenic cellularity, quantitative (FIG. 9)", "setting": "[5]", "result": "significantly preserved cellularity"}]}]}
